# Assay results taken from US8466129B2, “Method of preventing and treating airway remodeling and pulmonary inflammation using A2B adenosine receptor antagonists” (Gilead Sciences, Inc., priority 2004, dated 2013).
# Entries after “also recorded” stand apart in the source; their conditions may differ.
# Assays:
# [1] = tested on: ADA-deficient (ADA−/−) mice; assay: Alveolar airspace size (histology, mean chord length) in ADA-deficient mice; type: in vivo, mouse; conditions: 1 mg/kg ip twice daily for 17 days
# Experimental: Mice treated by intraperitoneal (ip) injection twice daily with 1 mg/kg 3-ethyl-1-propyl -8-{1-[(3-trifluoromethylphenyl)methyl]pyrazol-4-yl}1,3,7-trihydropurine-2,6-dione. The specific protocol is as follows: ADA-deficient (ADA−/−) or ADA containing (ADA+) mice were identified at birth by screening of ADA enzymatic activity in the blood. ADA−/− mice were maintained on ADA enzyme therapy from postnatal day 2 until postnatal day 21. At this stage, treatments with 3-ethyl-1-propyl-8-{1-[(3-trifluoromethylphenyl)methyl] pyrazol -4-yl}-1,3,7-trihydropurine-2,6-dione or vehicle controls (corn oil/ethanol/DMSO) were initiated. […]
# Mice were anesthetized with avertin, and lungs were lavaged four times with 0.3 ml PBS, and 0.95-1 ml of pooled lavage fluid was recovered. Total cell counts were determined using a hemocytometer, and aliquots were cytospun onto microscope slides and stained with Diff-Quick (Dade Nehring) for cellular differentials. […]
# The size of alveolar airways was determined in pressure infused lungs by measuring mean chord lengths on H&E-stained lung sections (Blackburn et al. (2000) J Exp Med 192:159-170). […] This line grid was subtracted from the lung images using Image-Pro® Plus (Media Cybernetics) image analysis software, and the resultant lines were measured and averaged to give the mean chord length of the alveolar airways. […]
# [2] = tested on: ADA-deficient (ADA−/−) mice; assay: Bronchiolalveolar lavage (BAL) cell counts and cellular differentials in ADA-deficient mice; type: in vivo, mouse; conditions: 1 mg/kg ip twice daily for 17 days
# Experimental: (§1) Mice treated by intraperitoneal (ip) injection twice daily with 1 mg/kg 3-ethyl-1-propyl -8-{1-[(3-trifluoromethylphenyl)methyl]pyrazol-4-yl}1,3,7-trihydropurine-2,6-dione. The specific protocol is as follows: ADA-deficient (ADA−/−) or ADA containing (ADA+) mice were identified at birth by screening of ADA enzymatic activity in the blood. ADA−/− mice were maintained on ADA enzyme therapy from postnatal day 2 until postnatal day 21. At this stage, treatments with 3-ethyl-1-propyl-8-{1-[(3-trifluoromethylphenyl)methyl] pyrazol -4-yl}-1,3,7-trihydropurine-2,6-dione or vehicle controls (corn oil/ethanol/DMSO) were initiated. Treatments consisted of an ip injection in the morning (8-9 AM) and in the evening (5-6 pm). Treatments were given daily for 17 days, and the experiment was terminated on postnatal day 38. Treatment groups included ADA−/− or ADA+mice receiving 3-ethyl-1-propyl-8-{1-[(3-trifluoromethylphenyl)methyl]pyrazol-4-yl}-1,3,7-trihydropurine-2,6-dione, vehicle, or no treatment. All mice were littermates and were therefore strain matched. Both males and females were included in these experiments. At the termination of the experiment, serum was collected for pharmacokinetics (PK) analysis of 3-ethyl-1-propyl -8-{1-[(3-trifluoromethylphenyl)methyl]pyrazol-4-yl}-1,3,7-trihydropurine -2,6-dione levels and various pulmonary endpoints were examined.
# (§2) Mice were anesthetized with avertin, and lungs were lavaged four times with 0.3 ml PBS, and 0.95-1 ml of pooled lavage fluid was recovered. Total cell counts were determined using a hemocytometer, and aliquots were cytospun onto microscope slides and stained with Diff-Quick (Dade Nehring) for cellular differentials. Lungs were then infused with 4% paraformaldehyde in PBS at 25 cm of pressure and then fixed overnight at 4° C. Fixed lung samples were rinsed in PBS, dehydrated, and embedded in paraffin. Sections (5 μm) were collected on microscope slides and stained with hematoxylin and eosin (H&E; Shandon-Lipshaw) or Masson's trichrome (EM Science), according to manufacturer's instructions.
# [3] = tested on: ADA-deficient (ADA−/−) mice; assay: Whole lung transcript levels by quantitative real-time RT-PCR in ADA-deficient mice; type: in vivo, mouse; conditions: 1 mg/kg ip twice daily for 17 days, vs vehicle-treated ADA−/− mice
# Experimental: as §1
# Mice were anesthetized and the lungs were rapidly removed and frozen in liquid nitrogen. RNA was isolated from frozen lung tissue using TRIzol Reagent (Life Technologies Inc., Grand Island, N.Y., USA). RNA samples were then DNase treated and subjected to quantitative real-time RT-PCR. The primers, probes and procedures for real-time RT-PCR were described previously in Sun et al. (2005) J Clin Invest 115:35-43. Reactions were carried out on a Smart Cycler rapid thermal cycler system (Cepheid, Sunnyvale, Calif.). Specific transcript levels were determined using Smart Cycler analysis software through comparison to a standard curve generated from the PCR amplification of template dilutions.
# [4] = tested on: ADA-deficient (ADA−/−) mice; assay: General health and lung histology (H&E) in the ADA-deficient mouse model of adenosine-dependent pulmonary injury; type: in vivo; conditions: 1 mg/kg ip twice daily for 17 days
# Description: The model system being used is the adenosine deaminase (ADA)-deficient mouse model of adenosine-dependent pulmonary injury. In this model, elevations in adenosine are associated with increased pulmonary inflammation and airway remodeling. Many of the features seen in these mice resemble those observed in patients with various forms of chronic lung disease including severe asthma, COPD and pulmonary fibrosis. The approach is to treat these mice with the A2B AR antagonist 3-ethyl-1-propyl-8-{1-[(3-trifluoromethylphenyl)methyl]pyrazol -4-yl}-1,3,7-trihydropurine-2,6-dione as a means to probe A2BAR contributions to pulmonary inflammation and injury in ADA-deficient mice, which should provide insight into the efficacy of this drug for the treatment of chronic lung diseases.
# as §1
# ADA-deficient mice were generated and genotyped as described (Blackburn et al. (1998) J Biol Chem 273:5093-5100 and Young et al. (2004) J. Immunol. 173:1380-1389. Mice homozygous for the null Ada allele were designated ADA-deficient (ADA^−/−), while mice heterozygous for the null Ada allele were designated as ADA control mice (ADA^+). All mice were on a mixed 129sv/C57BL/6J background and all phenotypic comparisons were performed amongst littermates. Animal care was in accordance with institutional and NIH guidelines. Mice were housed in ventilated cages equipped with microisolator lids and maintained under strict containment protocols. No evidence of bacterial, parasitic, or fungal infection was found, and serologies on cage littermates were negative for 12 of the most common murine viruses.
# as §2
# [5] = tested on: ADA-deficient (ADA−/−) mice; assay: Collagen deposition (Masson's trichrome) and soluble collagen (Sircol assay) in ADA-deficient mice; type: in vivo, mouse; conditions: 1 mg/kg ip twice daily for 17 days
# Experimental: as §1
# as §2, with “instructions. […]” for “instructions.”
# [6] = tested on: ADA-deficient (ADA−/−) mice; assay: α-smooth muscle actin immunostaining of lung myofibroblasts in ADA-deficient mice; type: in vivo, mouse; conditions: 1 mg/kg ip twice daily for 17 days
# Experimental: as §1, with “examined. […]” for “examined.”
# [7] = listed as adenosine A2B receptor antagonist, 1 mg/kg
# [8] = ADA−/− mice, vs vehicle-treated ADA−/− mice
smiles,measurement,setting,value
"CCCn1c(=O)c2[nH]c(-c3cnn(Cc4cccc(C(F)(F)F)c4)c3)nc2n(CC)c1=O [3-ethyl-1-propyl-8-(1-{[3-(trifluoromethyl)phenyl]methyl}pyrazol-4-yl)-1,3,7-trihydropurine-2,6-dione]",distal airway enlargement (histology),[1],prevented
same,distal airway size (mean cord length),[1],agreed with the histological observations
same,airway inflammation,[2],significant decrease
same,alveolar macrophage activation (BAL cells),[2],reduction
same,alveolar macrophages in BAL,[2],reduction
same,eosinophils in BAL,[2],reduction
same,lymphocytes in BAL,[2],reduction
same,neutrophils in BAL,[2],reduction
same,number of total cells recovered from BAL,[2]; vs vehicle-treated ADA−/− mice,significant reduction
same,"Eotaxin I level, whole lung RNA",[3],significantly lower
same,"IL-4 level, whole lung RNA",[3],did not change
same,"IL-5 level, whole lung RNA",[3],did not change
same,"IL-6 level, whole lung RNA",[3],significantly lower
same,"MMP-9 expression, whole lung RNA",[3],diminished
same,"MMP-12 expression, whole lung RNA",[3],diminished
same,"RANTES level, whole lung RNA",[3],did not change
same,"TARC level, whole lung RNA",[3],significantly lower
same,"TIMP-1 expression, whole lung RNA",[3],diminished
same,"TNFα level, whole lung RNA",[3],did not change
same,increase in collagen production: whole lung α1-procollagen transcript levels,[3],largely prevented
same,"monocyte chemoattractant proteins (MCPs) level, whole lung RNA",[3],did not change
same,"TGF-β1 expression (transcripts), whole lung",[3]; [7],lower levels; also recorded: decreased
same,"osteopontin (OPN) expression (transcripts), whole lung",[3]; [7],lower levels; also recorded: decreased
same,"plasminogen activator inhibitor-1 (PAI-1) expression (transcripts), whole lung",[3]; [7],lower levels; also recorded: decreased
same,alveolar airway simplification (H&E histology),[4]; ADA+ control mice,not evident
same,pulmonary inflammation (H&E histology),[4]; ADA+ control mice,not evident
same,pulmonary inflammation and airway destruction,[4]; ADA−/− mice,significant reduction
same,alveolar airway simplification (H&E histology),[4]; [8],significant decrease
same,pulmonary inflammation (H&E histology),[4]; [8],significant decrease
same,outward signs of severe respiratory distress (rapid breathing and hunched posture),"[4]; ADA−/− mice, seen in vehicle-treated or untreated ADA−/− mice",not observed
same,collagen deposition in the lungs (Masson's trichrome),[5]; ADA+ control mice,little to no
same,collagen deposition in the airways (Masson's trichrome),[5]; ADA−/− mice,reduction
same,increase in collagen production: collagen protein levels in BAL fluid,[5]; [8],largely prevented
same,α-sma positive cells in the distal airways (myofibroblast accumulation),[6],Few to no
